Results: PubChem BioAssay (NCI)
Where “and” joins values, the source holds several entries; their conditions need not be identical. Identical values can stand only once.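 Method: 48-hour compound exposure of cells in 96-well plates, five concentrations, linear interpolation of endpoints. GI50 marks 50% less growth. TGI marks complete inhibition of growth.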

Each compound was assayed on A549 NSCLC (assay: DTP human tumour cell line panel, 48 h).

SMILES	GI50 [µM]	TGI
CC(C)n1nc(-c2cc3cc(O)ccc3[nH]2)c2c(N)ncnc21	0.313	2.67 µM
CCCCC(O)(c1ccc(Cl)cc1)C(CN1CCOCC1)c1ccc(Cl)cc1 (configuration not stated)	12.5	30.9 µM
OC[C@H]1CCCC1O (some centres not stated)		> 100 µM
O=C(N/N=C/c1ccc(Cl)cc1)c1ccc(C(F)(F)F)nc1Nc1cccc(C(F)(F)F)c1	2.89	9.61 µM
COc1cc2ncnc(Nc3ccc(C)c(O)c3)c2cc1OC	18.1	> 25 µM
O=C1OC(C(O)CO)C(=O)C1=O (configuration not stated)	9790	> 10000 µM
COC(=O)C1=CNC=C(C(=O)OC)C1C1=CC(=O)C(C)=CC1=O	19.6	42.1 µM
C=C1C(=O)O[C@H]2[C@H]1CC/C(COC(=O)C(=O)c1cn(Cc3ccccc3)c3ccccc13)=C\CC[C@@]1(C)O[C@@H]21	2.13	6.35 µM
Cc1cc(S(=O)(=O)Nc2nnc(-c3ccccc3)c(-c3ccccc3)n2)c(SCC(N)=O)cc1Cl	> 100	> 100 µM
COc1ccc(/C=C/c2ccnc3ccccc23)c(OC)c1		> 10 µM
COC(C(O)CO)C(O)C(O)C(=O)NNc1ccccc1 (configuration not stated)		> 100 µM
NS(=O)(=O)c1ccc(NC2(C(=O)O)CCCC2)cc1		> 100 µM
O=C(O)C1OC(n2cc(F)c(=O)[nH]c2=O)CC1O (configuration not stated)		> 100 µM
N=C1C(c2nc3ccccc3s2)=C(O)CN1c1cc(C(F)(F)F)ccc1Cl	21.1	> 100 µM
CC(=O)CSCc1ccccn1		> 100 µM
COc1ccccc1CNCCCN1C(=O)c2ccc3c4c(ccc(c24)C1=O)C(=O)N(CCCOCCCCOCCCN)C3=O	1.22	2.82 µM
CCOC(=O)[C@@H](N)CCC(=O)N[C@@H](CSCc1ccccc1)C(=O)N[C@@H](C(=O)OCC)c1ccccc1	> 73.2	> 100 µM
COc1ccc(Nc2c3ccccc3nc3occc23)cc1	3.26	41.6 µM
CC(=O)/C(C)=N/NC(=O)c1ccccc1O	> 100	> 100 µM
CCCCCCCC/C=C/CCCCCCCC(=O)OC[C@H]1O[C@@H](n2ccc(N)nc2=O)C(F)(F)[C@@H]1O	< 0.0174	> 70.1 µM
NS(=O)(=O)c1ccc(N=Nc2c(O)[nH]c3ccc(-c4cnco4)cc23)cc1	> 25	> 25 µM
N#C/C(=C1C=C(Br)/C(=N\O)C=C\1Cl)c1cccc2ccccc12		26 µM
COc1cc2nc3cc([N+](=O)[O-])ccc3c(NCCCNCCO)c2cc1OC	0.255	0.635 µM
COC(=O)[C@@H](C)CNS(=O)(=O)N(c1cc(C(F)(F)F)cc(C(F)(F)F)c1)C1CCN(Cc2ccc(F)cc2)CC1	14	31 µM
C=C1C(=O)O[C@@H]2/C=C(\C)CC/C=C(/COC(C)=O)C[C@@H](OC(C)=O)[C@@H]12		> 100 µM
COC(=O)[C@H](C)NC(=O)NC(=O)NC(=O)CI	20	36.3 µM
COc1cc2c(c(OC)c1OC)-c1ccc(OC)c(=O)cc1[C@@H](NC(=O)c1ccccc1)CC2	< 0.003	30 µM and > 100 µM
CN1c2ccc(Cl)cc2C(=O)NC1c1ccc([N+](=O)[O-])s1 (configuration not stated)		92 µM

These compounds were tested on SK-MEL-2 melanoma (assay: DTP human tumour cell line panel, 48 h).

SMILES	GI50 [µM]	TGI [µM]
CN1CCN(CCCOc2ccc3nc(Nc4ccc(Cl)c(C(F)(F)F)c4)ccc3c2)CC1	16.5	31.6
CC(C)n1nc(-c2cc3cc(O)ccc3[nH]2)c2c(N)ncnc21	0.229	1.95
OC[C@H]1CCCC1O (some centres not stated)		> 100
O=C(N/N=C/c1ccc(Cl)cc1)c1ccc(C(F)(F)F)nc1Nc1cccc(C(F)(F)F)c1	2.58	7.91
COc1cc2ncnc(Nc3ccc(C)c(O)c3)c2cc1OC	> 13.4	> 20
O=C1OC(C(O)CO)C(=O)C1=O (configuration not stated)	> 10000	> 10000
COC(=O)C1=CNC=C(C(=O)OC)C1C1=CC(=O)C(C)=CC1=O	16.6	30.9
C=C1C(=O)O[C@H]2[C@H]1CC/C(COC(=O)C(=O)c1cn(Cc3ccccc3)c3ccccc13)=C\CC[C@@]1(C)O[C@@H]21	2.09	4.71
Cc1cc(S(=O)(=O)Nc2nnc(-c3ccccc3)c(-c3ccccc3)n2)c(SCC(N)=O)cc1Cl	30.5	49.2
COc1ccc(/C=C/c2ccnc3ccccc23)c(OC)c1		> 10
COC(C(O)CO)C(O)C(O)C(=O)NNc1ccccc1 (configuration not stated)		> 100
NS(=O)(=O)c1ccc(NC2(C(=O)O)CCCC2)cc1		> 100
O=C(O)C1OC(n2cc(F)c(=O)[nH]c2=O)CC1O (configuration not stated)		> 100
N=C1C(c2nc3ccccc3s2)=C(O)CN1c1cc(C(F)(F)F)ccc1Cl	29.8	> 100
CC(=O)CSCc1ccccn1		71.4
COc1ccccc1CNCCCN1C(=O)c2ccc3c4c(ccc(c24)C1=O)C(=O)N(CCCOCCCCOCCCN)C3=O	1.83	4.04
CCOC(=O)[C@@H](N)CCC(=O)N[C@@H](CSCc1ccccc1)C(=O)N[C@@H](C(=O)OCC)c1ccccc1	16.7	32.7
CC(=O)/C(C)=N/NC(=O)c1ccccc1O	> 100	> 100
CCCCCCCC/C=C/CCCCCCCC(=O)OC[C@H]1O[C@@H](n2ccc(N)nc2=O)C(F)(F)[C@@H]1O	14.2	> 100
NS(=O)(=O)c1ccc(N=Nc2c(O)[nH]c3ccc(-c4cnco4)cc23)cc1	> 25	> 25
N#C/C(=C1C=C(Br)/C(=N\O)C=C\1Cl)c1cccc2ccccc12		8.9
COc1cc2nc3cc([N+](=O)[O-])ccc3c(NCCCNCCO)c2cc1OC	0.187	0.389
COC(=O)[C@@H](C)CNS(=O)(=O)N(c1cc(C(F)(F)F)cc(C(F)(F)F)c1)C1CCN(Cc2ccc(F)cc2)CC1	21	41
C=C1C(=O)O[C@@H]2/C=C(\C)CC/C=C(/COC(C)=O)C[C@@H](OC(C)=O)[C@@H]12		31.8
COC(=O)[C@H](C)NC(=O)NC(=O)NC(=O)CI	15.4	29.9
COc1cc2c(c(OC)c1OC)-c1ccc(OC)c(=O)cc1[C@@H](NC(=O)c1ccccc1)CC2	< 0.003	
CN1c2ccc(Cl)cc2C(=O)NC1c1ccc([N+](=O)[O-])s1 (configuration not stated)		30.8

The compounds below were run on A498 renal (assay: DTP human tumour cell line panel, 48 h).

SMILES	GI50 [µM]	TGI [µM]
CN1CCN(CCCOc2ccc3nc(Nc4ccc(Cl)c(C(F)(F)F)c4)ccc3c2)CC1	13.7	28.8
CC(C)n1nc(-c2cc3cc(O)ccc3[nH]2)c2c(N)ncnc21	0.0194	0.123
CCCCC(O)(c1ccc(Cl)cc1)C(CN1CCOCC1)c1ccc(Cl)cc1 (configuration not stated)	11.1	24.1
OC[C@H]1CCCC1O (some centres not stated)		> 100
O=C(N/N=C/c1ccc(Cl)cc1)c1ccc(C(F)(F)F)nc1Nc1cccc(C(F)(F)F)c1	2.24	8.69
COc1cc2ncnc(Nc3ccc(C)c(O)c3)c2cc1OC	5.56	18
O=C1OC(C(O)CO)C(=O)C1=O (configuration not stated)	2520	8510
COC(=O)C1=CNC=C(C(=O)OC)C1C1=CC(=O)C(C)=CC1=O	13.1	33.6
C=C1C(=O)O[C@H]2[C@H]1CC/C(COC(=O)C(=O)c1cn(Cc3ccccc3)c3ccccc13)=C\CC[C@@]1(C)O[C@@H]21	18.5	35.2
Cc1cc(S(=O)(=O)Nc2nnc(-c3ccccc3)c(-c3ccccc3)n2)c(SCC(N)=O)cc1Cl	> 100	> 100
COc1ccc(/C=C/c2ccnc3ccccc23)c(OC)c1		> 10
COC(C(O)CO)C(O)C(O)C(=O)NNc1ccccc1 (configuration not stated)		> 100
NS(=O)(=O)c1ccc(NC2(C(=O)O)CCCC2)cc1		> 100
O=C(O)C1OC(n2cc(F)c(=O)[nH]c2=O)CC1O (configuration not stated)		> 100
N=C1C(c2nc3ccccc3s2)=C(O)CN1c1cc(C(F)(F)F)ccc1Cl	24.6	97.9
CC(=O)CSCc1ccccn1		> 100
